The target in one assay is Paired box protein Pax-8 (Homo sapiens, UniProt Q06710). The assay is described as follows: inhibitors of PAX8-driven TPO luciferase reporter, dose response, RMG-I cells, cherry-pick (AID 687027).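 Further: luciferase reporter driven by Pax8 target thyroperoxidase promoter measured by SteadyGlo luminescence.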 In kind it is functional, cell-based.
Assay [1] can be described thus: PAX2 cell-based inhibition, dose response, selectivity assay for PAX8 inhibitor project, plate reader, dry powder samples (AID 743048).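 Further: HEK293 cells carrying a WT1 promoter luciferase reporter driven by expressed Pax2; potency is for inhibition of Pax2 driven reporter signal.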 Format: functional.
Assay [2] in a line: cytotoxicity in COV362 ovarian cancer cells, dose response, cytotoxicity control for PAX8 inhibitor project, cell-based, plate reader, dry powder, SA12 (AID 743144). In kind it is functional.
The nature of assay [3]: PAX5 activity inhibitors, dose response, selectivity assay for PAX8 inhibitor project, cell-based, plate reader, dry powder samples (AID 743047).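 Further: HEK293 cells carrying a Pax5 driven CD19 promoter luciferase reporter; potency of inhibitors that lower reporter luminescence.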 Format: functional.
Assay [4] is described as follows: IGROV1 ovarian cancer cell cytotoxicity, dose response, PAX8 inhibitor project, plate reader, dry powder samples (AID 743043). In kind it is functional, cell-based. The note with it: IGROV-1.
A short description of assay [5]: cytotoxicity in OVCAR4 cells, dose response, cytotoxicity control for PAX8 inhibitor project, cell-based, plate reader, dry powder, SA11 (AID 743150). Format: functional. To be noted: OVCAR-4.
Assay [6] in a line: cytotoxicity in COV434 cells, dose response, cytotoxicity control for PAX8 inhibitor project, cell-based, plate reader, dry powder, SA7 (AID 743145). Format: functional.
Assay [7] in a line: cytotoxicity in OV-90 ovarian cancer cells, dose response, PAX8 inhibitor project, cell-based, plate reader, dry powder, SA8 (AID 743149). In kind it is functional.
Assay [8] can be described thus: cytotoxicity dependent on PAX8, dose response, cell-based, plate reader, dry powder (AID 743049). Format: functional.
Assay [9] is described as follows: inhibitors of PGC1a acetylation in cells, dose response, cell-based, cherry-picked samples (AID 720514).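 Further: potency may reflect raised or lowered acetylation signal.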 In kind it is functional.
Assay [10] is described as follows: P. falciparum 3D7-ScDHODH growth inhibitors, dose response, SYBR Green, dry powder samples (AID 1159570).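 Further: parasite growth measured after 72 hours of compound exposure.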 Format: functional, cell-based.
The nature of assay [11]: HepG2 cell cytotoxicity, dose response, cytotoxicity control, plate reader, dry powder samples (AID 1159569).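 Further: inhibitor potency with signal falling toward the positive control level.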 Format: functional, cell-based.
Assay [12] in a line: P. falciparum Dd2 growth inhibitors, dose response, SYBR Green, cherry-picked samples (AID 1159567). In kind it is functional, cell-based.
Assay [13] is described as follows: P. falciparum Dd2 growth inhibitors, dose response, SYBR Green, dry powder samples (AID 1159566).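 Further: potency for growth inhibition with lower SYBR green DNA signal.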 Format: functional, cell-based.
Assay [14] in a line: P. falciparum ATP4 D1247Y mutant growth inhibitors, dose response, NITD609-resistant line, SYBR Green, dry powder (AID 1159571).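 Further: parasites synchronized at ring stage by sorbitol before testing.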 Format: functional, cell-based.
A short description of assay [15]: Shn3 3'UTR reporter inhibitors, dose response, cell-based, Clone20 osteoblasts, firefly luciferase, cherry-picked (AID 624132).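 Further: firefly luciferase luminescence from reporter carrying the Shn3 3'UTR in osteoblasts.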 Format: functional.
Assay [16] in a line: HepG2 cell cytotoxicity, dose response, cytotoxicity control for Shn3 inhibitor project, CellTiter-Glo, cherry-picked (AID 624134). In kind it is functional, cell-based. Background: Cellular ATP, detected with luciferase, serves as a proxy for viable cell number.
The nature of assay [17]: reduction of Shn3 3'UTR firefly luciferase signal, dose response, Schnurri-3 inhibitor project, cell-based, Clone20 osteoblasts, cherry-pick, set 2 (AID 720490).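 Further: actives lower the luminescence signal as inhibitors.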 Format: functional.
The nature of assay [18]: inhibitors of control Renilla luciferase reporter, dose response, counter-screen for Shn3 3'UTR targeting project, Clone20-Shn3RL cells, dual-Glo, cherry-pick, set 2 (AID 720724). The note with it: Dual-Go Shn3RL. In kind it is functional, cell-based. In general terms: Reporter assays use an easily measured gene product as a stand-in for the process of interest.
In the next assay the target is T1, Protein skinhead-1 (Caenorhabditis elegans, UniProt P34707).
T1 sequence (P34707 whole entry): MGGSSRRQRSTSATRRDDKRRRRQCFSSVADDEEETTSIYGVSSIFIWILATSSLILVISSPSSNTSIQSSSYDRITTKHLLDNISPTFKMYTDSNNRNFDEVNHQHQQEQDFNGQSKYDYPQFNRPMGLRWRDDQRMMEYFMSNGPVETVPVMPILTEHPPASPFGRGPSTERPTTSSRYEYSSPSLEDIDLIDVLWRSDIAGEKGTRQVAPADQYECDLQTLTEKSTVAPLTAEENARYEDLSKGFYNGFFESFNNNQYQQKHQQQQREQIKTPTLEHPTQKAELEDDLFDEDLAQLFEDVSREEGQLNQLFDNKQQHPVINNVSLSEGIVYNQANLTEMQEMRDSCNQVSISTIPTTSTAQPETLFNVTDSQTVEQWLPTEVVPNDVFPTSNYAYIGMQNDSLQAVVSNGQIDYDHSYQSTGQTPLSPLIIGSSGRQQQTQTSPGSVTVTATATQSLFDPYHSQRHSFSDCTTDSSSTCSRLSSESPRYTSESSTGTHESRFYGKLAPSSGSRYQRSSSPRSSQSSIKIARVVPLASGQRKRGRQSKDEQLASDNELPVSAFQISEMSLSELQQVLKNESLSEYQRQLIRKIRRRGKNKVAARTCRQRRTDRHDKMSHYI
In kind it is functional.

Assay [19] can be described thus: Luminescence-based cell-based high throughput dose response assay to identify activators of the DAF-12 from the parasite S. stercoralis (ssDAF-12). In kind it is functional.
In assay [20] the target is T2, Oxysterols receptor LXR-beta (Homo sapiens, UniProt P55055).
T2 sequence (P55055 whole entry): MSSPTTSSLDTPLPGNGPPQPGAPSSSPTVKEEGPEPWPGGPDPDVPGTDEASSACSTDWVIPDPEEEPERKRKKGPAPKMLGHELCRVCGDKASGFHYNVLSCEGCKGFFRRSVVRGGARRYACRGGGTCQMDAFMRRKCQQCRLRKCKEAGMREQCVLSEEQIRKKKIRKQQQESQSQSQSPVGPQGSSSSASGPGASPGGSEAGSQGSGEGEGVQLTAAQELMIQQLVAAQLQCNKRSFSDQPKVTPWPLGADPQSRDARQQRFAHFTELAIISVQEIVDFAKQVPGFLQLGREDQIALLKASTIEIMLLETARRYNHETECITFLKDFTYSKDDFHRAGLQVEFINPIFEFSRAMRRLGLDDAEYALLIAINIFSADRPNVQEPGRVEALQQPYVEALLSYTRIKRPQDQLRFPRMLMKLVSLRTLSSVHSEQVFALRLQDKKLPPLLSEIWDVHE
The assay is described as follows: LXR agonists, Gal4 luciferase reporter, dose response, counter-screen for ssDAF-12 agonist project, cell-based, luminescence, HEK293, S. stercoralis campaign (AID 720737). The note with it: read-out: IC50 (the source's name). In kind it is functional.

The structures appear in SMILES notation. The source made the active and inactive calls.

Sequence of Paired box protein Pax-8 (Q06710 whole entry): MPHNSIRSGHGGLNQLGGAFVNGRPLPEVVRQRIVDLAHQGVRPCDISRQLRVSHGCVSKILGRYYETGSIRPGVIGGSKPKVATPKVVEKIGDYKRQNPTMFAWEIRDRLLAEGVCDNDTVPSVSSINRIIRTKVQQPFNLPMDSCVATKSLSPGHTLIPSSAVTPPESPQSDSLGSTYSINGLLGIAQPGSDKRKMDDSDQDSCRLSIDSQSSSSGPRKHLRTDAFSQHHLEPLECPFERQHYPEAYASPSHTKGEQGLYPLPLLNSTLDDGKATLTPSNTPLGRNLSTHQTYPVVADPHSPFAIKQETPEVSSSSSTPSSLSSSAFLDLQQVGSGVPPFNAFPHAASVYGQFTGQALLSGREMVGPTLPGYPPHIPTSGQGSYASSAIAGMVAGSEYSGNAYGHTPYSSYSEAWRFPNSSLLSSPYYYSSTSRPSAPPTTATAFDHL

By AC50 is commonly meant the concentration at which the activity in the assay is half-maximal. As for `C[C@@H]1CN([C@H](C)CO)C(=O)c2cc(NC(=O)CCCCCC(=O)Nc3ccccc3N)ccc2O[C@@H]1CN(C)Cc1ccc(C(F)(F)F)cc1`, the AC50 on Paired box protein Pax-8 was 6.43 µM (active); in assay [1], > 32 µM (inactive); in [2], 32.9 µM (active); in assay [3], 30 µM (active); in assay [4] it was 39 µM (active); in [5] it was 31.2 µM (active). Further, the results for the AC50 in assay [6], in [7] and in assay [8] were > 70 µM (inactive), > 70 µM (inactive) and 10.1 µM (active), respectively.

For `O=S(=O)(c1ccc(-c2ccccc2)cc1)N1C[C@@H]2N[C@H](C1)[C@@H]2c1ccc(-c2cccnc2)cc1`, the half-maximal activity concentration (AC50) in assay [9] is 8.2 µM (active); in [10], 1.29 µM (active); in assay [11] it was 19.5 µM (active); in [12], 2.14 µM (active); in [13], 0.772 µM (active); in assay [14], 1.8 µM (active).

On to `CN(CC(=O)Nc1ccccc1Cl)C(=O)c1cccc(S(=O)(=O)N2CCN(c3ccccc3)CC2)c1`, for which the AC50 is 3.84 µM (active) in assay [15], > 70 µM (inactive) in assay [16], 4.32 µM (active) in [17] and 47.9 µM (active) in assay [18].

A word on the IC50: it is the concentration that inhibits the measured activity by half. In the case of `Fc1ccc(-c2csc(Nc3ccccn3)n2)cc1`, the IC50 at Protein skinhead-1 is 22.8 µM (active); in assay [19], > 67.6 µM (inactive). Moreover, the EC50 in [20] was > 67.6 µM (inactive).

The values are drawn from ChEMBL document CHEMBL1201862, “PubChem BioAssay data set” (2004).
